According to ChEMBL document CHEMBL3885881, “DrugMatrix”:

Organism: Rattus norvegicus
Test: DrugMatrix - Regimen: Daily Repeat
Format: toxicity, organism-based, Sprague-Dawley
Set-up: regimen Daily Repeat, gender Male, age 6-8 weeks
Settings: in vivo, po, route oral GAVAGE, vehicle 100 % SALINE; for ABSOLUTE BASOPHIL / ABSOLUTE EOSINOPHIL / ABSOLUTE LYMPHOCYTE / ABSOLUTE MONOCYTE / ABSOLUTE SEGMENTED NEUTROPHIL / BASOPHIL / EOSINOPHIL / ERYTHROCYTE COUNT / HEMATOCRIT / HEMOGLOBIN / LEUKOCYTE COUNT / LYMPHOCYTE / MEAN CORPUSCULAR HEMOGLOBIN / MEAN CORPUSCULAR HEMOGLOBIN CONCENTRATION / MEAN CORPUSCULAR VOLUME / MONOCYTE / NEUTROPHIL / NUCLEATED RED BLOOD CELLS / PLATELET COUNT: tissue Blood; for ALANINE AMINOTRANSFERASE / ALBUMIN / ALKALINE PHOSPHATASE / ASPARTATE AMINOTRANSFERASE / BLOOD UREA NITROGEN / CARBON DIOXIDE / CHLORIDE / CHOLESTEROL / CREATINE PHOSPHOKINASE / CREATININE / GLUCOSE / LACTATE DEHYDROGENASE / LIPASE / PHOSPHORUS / POTASSIUM / SODIUM / TOTAL BILIRUBIN / TOTAL PROTEIN / URIC ACID: tissue Plasma
[1] = 0 mg/kg, 72 h, dose level Control, time 3 day
[2] = 0 mg/kg, 120 h, dose level Control, time 5 day
[3] = 11 mg/kg, 72 h, dose level High, time 3 day

Compound: Cc1cc(CC(=O)O)n(C)c1C(=O)c1ccc(Cl)cc1 [ZOMEPIRAC]
- ABSOLUTE BASOPHIL [1]: 0 CELLS/uL
- ABSOLUTE EOSINOPHIL [1]: 65.67 CELLS/uL
- ABSOLUTE LYMPHOCYTE [1]: 17283.5 CELLS/uL
- ABSOLUTE MONOCYTE [1]: 0 CELLS/uL
- ABSOLUTE SEGMENTED NEUTROPHIL [1]: 1284.17 CELLS/uL
- BASOPHIL [1]: 0%
- EOSINOPHIL [1]: 0.33%
- ERYTHROCYTE COUNT [1]: 5.46 x10E6/uL
- HEMATOCRIT [1]: 34.28%
- HEMOGLOBIN [1]: 13.78 G/DL
- LEUKOCYTE COUNT [1]: 18.63 x10E3/uL
- LYMPHOCYTE [1]: 92.67%
- MEAN CORPUSCULAR HEMOGLOBIN [1]: 25.3 pg
- MEAN CORPUSCULAR HEMOGLOBIN CONCENTRATION [1]: 40.22 G/DL
- MEAN CORPUSCULAR VOLUME [1]: 62.87 fL
- MONOCYTE [1]: 0%
- NEUTROPHIL [1]: 7%
- NUCLEATED RED BLOOD CELLS [1]: 0 /100WBC
- PLATELET COUNT [1]: 1244.83 x10E3/uL
- ALANINE AMINOTRANSFERASE [1]: 52.83 u/L
- ALBUMIN [1]: 4 G/DL
- ALKALINE PHOSPHATASE [1]: 327.67 u/L
- ASPARTATE AMINOTRANSFERASE [1]: 78.83 u/L
- BLOOD UREA NITROGEN [1]: 13.83 mg/dL
- CARBON DIOXIDE [1]: 26.67 mmol/L
- CHLORIDE [1]: 99.67 MEQ/L
- CHOLESTEROL [1]: 69 mg/dL
- CREATINE PHOSPHOKINASE [1]: 350.17 u/L
- CREATININE [1]: 0.21 mg/dL
- GLUCOSE [1]: 173.83 mg/dL
- LACTATE DEHYDROGENASE [1]: 168.33 u/L
- LIPASE [1]: 11 u/L
- PHOSPHORUS [1]: 12.7 mg/dL
- POTASSIUM [1]: 6.88 MEQ/L
- SODIUM [1]: 141.68 MEQ/L
- TOTAL BILIRUBIN [1]: 0.22 mg/dL
- TOTAL PROTEIN [1]: 6.02 G/DL
- URIC ACID [1]: 1.9 mg/dL
- ABSOLUTE BASOPHIL [2]: 0 CELLS/uL
- ABSOLUTE EOSINOPHIL [2]: 14.83 CELLS/uL
- ABSOLUTE LYMPHOCYTE [2]: 12880 CELLS/uL
- ABSOLUTE MONOCYTE [2]: 90.67 CELLS/uL
- ABSOLUTE SEGMENTED NEUTROPHIL [2]: 864.5 CELLS/uL
- BASOPHIL [2]: 0%
- EOSINOPHIL [2]: 0.17%
- ERYTHROCYTE COUNT [2]: 5.83 x10E6/uL
- HEMATOCRIT [2]: 35.87%
- HEMOGLOBIN [2]: 14 G/DL
- LEUKOCYTE COUNT [2]: 13.85 x10E3/uL
- LYMPHOCYTE [2]: 92.5%
- MEAN CORPUSCULAR HEMOGLOBIN [2]: 24.03 pg
- MEAN CORPUSCULAR HEMOGLOBIN CONCENTRATION [2]: 39.03 G/DL
- MEAN CORPUSCULAR VOLUME [2]: 61.53 fL
- MONOCYTE [2]: 0.67%
- NEUTROPHIL [2]: 6.67%
- NUCLEATED RED BLOOD CELLS [2]: 0 /100WBC
- PLATELET COUNT [2]: 1041.83 x10E3/uL
- ALANINE AMINOTRANSFERASE [2]: 56 u/L
- ALBUMIN [2]: 4.47 G/DL
- ALKALINE PHOSPHATASE [2]: 319 u/L
- ASPARTATE AMINOTRANSFERASE [2]: 89.17 u/L
- BLOOD UREA NITROGEN [2]: 15.2 mg/dL
- CARBON DIOXIDE [2]: 24 mmol/L
- CHLORIDE [2]: 104.4 MEQ/L
- CHOLESTEROL [2]: 69.5 mg/dL
- CREATINE PHOSPHOKINASE [2]: 295.83 u/L
- CREATININE [2]: 0.21 mg/dL
- GLUCOSE [2]: 124.33 mg/dL
- LACTATE DEHYDROGENASE [2]: 325.5 u/L
- LIPASE [2]: 14.67 u/L
- PHOSPHORUS [2]: 11.45 mg/dL
- POTASSIUM [2]: 6.74 MEQ/L
- SODIUM [2]: 151.4 MEQ/L
- TOTAL BILIRUBIN [2]: 0.23 mg/dL
- TOTAL PROTEIN [2]: 6.45 G/DL
- URIC ACID [2]: 1.18 mg/dL
- ABSOLUTE BASOPHIL [3]: 0 CELLS/uL
- ABSOLUTE EOSINOPHIL [3]: 0 CELLS/uL
- ABSOLUTE LYMPHOCYTE [3]: 16900 CELLS/uL
- ABSOLUTE MONOCYTE [3]: 480 CELLS/uL
- ABSOLUTE SEGMENTED NEUTROPHIL [3]: 3253.33 CELLS/uL
- BASOPHIL [3]: 0%
- EOSINOPHIL [3]: 0%
- ERYTHROCYTE COUNT [3]: 5.38 x10E6/uL
- HEMATOCRIT [3]: 33.2%
- HEMOGLOBIN [3]: 13.37 G/DL
- LEUKOCYTE COUNT [3]: 20.63 x10E3/uL
- LYMPHOCYTE [3]: 83.67%
- MEAN CORPUSCULAR HEMOGLOBIN [3]: 24.83 pg
- MEAN CORPUSCULAR HEMOGLOBIN CONCENTRATION [3]: 40.27 G/DL
- MEAN CORPUSCULAR VOLUME [3]: 61.67 fL
- MONOCYTE [3]: 2%
- NEUTROPHIL [3]: 14.33%
- NUCLEATED RED BLOOD CELLS [3]: 0 /100WBC
- PLATELET COUNT [3]: 1231.67 x10E3/uL
- ALANINE AMINOTRANSFERASE [3]: 59 u/L
- ALBUMIN [3]: 3.87 G/DL
- ALKALINE PHOSPHATASE [3]: 255.33 u/L
- ASPARTATE AMINOTRANSFERASE [3]: 72.67 u/L
- BLOOD UREA NITROGEN [3]: 13.33 mg/dL
- CARBON DIOXIDE [3]: 25.33 mmol/L
- CHLORIDE [3]: 101 MEQ/L
- CHOLESTEROL [3]: 69 mg/dL
- CREATINE PHOSPHOKINASE [3]: 224.67 u/L
- CREATININE [3]: 0.23 mg/dL
- GLUCOSE [3]: 183.67 mg/dL
- LACTATE DEHYDROGENASE [3]: 112.67 u/L
- LIPASE [3]: 10.33 u/L
- PHOSPHORUS [3]: 11.5 mg/dL
- POTASSIUM [3]: 5.88 MEQ/L
- SODIUM [3]: 141.43 MEQ/L
- TOTAL BILIRUBIN [3]: 0.2 mg/dL
- TOTAL PROTEIN [3]: 5.77 G/DL
- URIC ACID [3]: 1.47 mg/dL
